Where two headings read alike, the source gives them in different places.
Columns and labels:
[1] = molecular target: T1, EED (1-441)-His protein (Homo sapiens, UniProt O75530); assay: EED-H3K27Me3 peptide competition binding assay by AlphaScreen
T1 construct: 30 nM EED (1-441)-His protein
Outline: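 Serially diluted compound (12 points, 3-fold) incubated 20 min with 30 nM EED(1-441)-His and 15 nM biotin-H3K27Me3(19-33) peptide in 25 mM HEPES pH 8, 0.02% Tween-20, 0.5% BSA. Ni-chelate acceptor/streptavidin donor beads (10 μg/mL each) added, 1 h rt dark; 615 nm emission normalized to controls, dose-response fit for IC50.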

[2] = molecular target: wild type PRC2 (wtPRC2) complex (Homo sapiens, UniProt O75530); assay: EED LC-MS assay (SAH production by PRC2); assay type: biochemical
Outline: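 Pentameric PRC2 (EZH2, SUZ12, EED, Rbap48, AEBP), 12 nM final, preincubated 20 min with compound and SAM, then 1.5 μM biotinylated H3K27me0 peptide, 1 μM SAM, pH 8.0, 120 min at rt. SAH quantified by LC-MS/MS with d4-SAH; control-normalized activity fitted for IC50.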

[3] = system: H3K27 methylation in G401 cell; assay: ELISA (H3K27 methylation) assay in G401 cells; assay type: cell-based, human; conditions: Homo sapiens
Outline: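 G401 cells treated 48 h with 3-fold dilutions (8 or 12 points, top 20 μM). Acid-extracted histones probed by ELISA for H3K27me3 or H3K27me2 with ECL readout, normalized to total H3. Percent inhibition versus DMSO fitted to dose-response curve for IC50.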

[4] = EED-H3K27Me3 peptide competition, AlphaScreen, read-out: (a) IC50 EED Alphascreen binding Qualified
[5] = PRC2 LC-MS assay, read-out: (b) IC50 EED LC-MS Qualified
[6] = G-401, H3K27 methylation ELISA, read-out: (c) IC50 ELISA Qualified
[7] = read-out: (a) IC50, EED Alphascreen binding Qualified
[8] = read-out: (b) IC50, EED LC-MS Qualified
[9] = G-401, read-out: (c) IC50, ELISA Qualified

Chain of wild type PRC2 (wtPRC2) complex (O75530 whole entry): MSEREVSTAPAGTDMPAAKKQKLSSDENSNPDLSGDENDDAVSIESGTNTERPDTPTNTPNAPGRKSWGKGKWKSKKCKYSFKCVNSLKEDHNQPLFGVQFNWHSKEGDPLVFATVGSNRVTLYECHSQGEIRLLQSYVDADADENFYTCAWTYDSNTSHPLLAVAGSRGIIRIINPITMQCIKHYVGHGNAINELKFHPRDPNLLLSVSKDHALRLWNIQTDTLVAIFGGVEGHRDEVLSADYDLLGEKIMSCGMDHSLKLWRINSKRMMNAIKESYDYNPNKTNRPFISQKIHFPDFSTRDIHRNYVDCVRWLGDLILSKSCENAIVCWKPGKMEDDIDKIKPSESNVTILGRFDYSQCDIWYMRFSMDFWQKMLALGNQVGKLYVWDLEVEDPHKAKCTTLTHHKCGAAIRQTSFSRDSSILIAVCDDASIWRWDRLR
Chain of wild type PRC2 (wtPRC2) complex (Q15910 whole entry partner): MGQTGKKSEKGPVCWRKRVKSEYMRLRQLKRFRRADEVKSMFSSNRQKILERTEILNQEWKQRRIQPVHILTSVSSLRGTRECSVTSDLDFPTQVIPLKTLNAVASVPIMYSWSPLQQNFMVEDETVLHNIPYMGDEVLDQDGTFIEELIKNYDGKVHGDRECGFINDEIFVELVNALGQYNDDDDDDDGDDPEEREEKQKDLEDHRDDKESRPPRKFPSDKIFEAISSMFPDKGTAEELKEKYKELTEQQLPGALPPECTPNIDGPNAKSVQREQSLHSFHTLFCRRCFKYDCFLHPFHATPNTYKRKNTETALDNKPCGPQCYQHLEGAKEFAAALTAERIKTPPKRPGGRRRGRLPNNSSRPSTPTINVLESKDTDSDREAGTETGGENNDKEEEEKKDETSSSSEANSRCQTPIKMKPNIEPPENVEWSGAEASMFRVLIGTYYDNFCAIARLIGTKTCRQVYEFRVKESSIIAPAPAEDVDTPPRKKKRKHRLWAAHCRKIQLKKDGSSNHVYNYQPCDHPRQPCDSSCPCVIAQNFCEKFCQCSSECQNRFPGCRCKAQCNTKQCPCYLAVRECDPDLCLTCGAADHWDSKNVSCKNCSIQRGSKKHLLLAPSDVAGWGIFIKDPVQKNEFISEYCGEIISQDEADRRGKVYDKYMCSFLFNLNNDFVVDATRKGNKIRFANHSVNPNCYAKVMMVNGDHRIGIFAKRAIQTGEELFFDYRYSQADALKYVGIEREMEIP
Chain of wild type PRC2 (wtPRC2) complex (Q15022 whole entry partner): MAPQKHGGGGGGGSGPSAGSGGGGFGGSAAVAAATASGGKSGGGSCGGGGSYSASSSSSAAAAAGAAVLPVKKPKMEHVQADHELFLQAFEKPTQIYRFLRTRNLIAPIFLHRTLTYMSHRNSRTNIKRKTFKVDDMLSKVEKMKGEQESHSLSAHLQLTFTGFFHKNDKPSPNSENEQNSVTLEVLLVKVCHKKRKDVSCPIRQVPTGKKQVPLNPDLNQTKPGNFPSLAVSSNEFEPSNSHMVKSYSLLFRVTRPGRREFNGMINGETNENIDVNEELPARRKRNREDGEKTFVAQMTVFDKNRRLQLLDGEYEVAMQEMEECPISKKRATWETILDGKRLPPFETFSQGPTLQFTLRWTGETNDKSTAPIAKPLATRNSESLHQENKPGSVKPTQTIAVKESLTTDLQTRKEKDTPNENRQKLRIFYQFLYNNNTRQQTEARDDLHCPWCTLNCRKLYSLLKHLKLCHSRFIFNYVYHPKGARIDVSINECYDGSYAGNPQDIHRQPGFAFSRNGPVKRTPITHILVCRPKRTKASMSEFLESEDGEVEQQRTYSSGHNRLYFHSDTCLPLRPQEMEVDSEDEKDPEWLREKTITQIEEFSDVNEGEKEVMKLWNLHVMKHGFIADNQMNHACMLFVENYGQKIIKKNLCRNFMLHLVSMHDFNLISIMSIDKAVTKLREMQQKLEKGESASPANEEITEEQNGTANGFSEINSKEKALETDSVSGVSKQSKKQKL
Chain of wild type PRC2 (wtPRC2) complex (Q09028 whole entry partner): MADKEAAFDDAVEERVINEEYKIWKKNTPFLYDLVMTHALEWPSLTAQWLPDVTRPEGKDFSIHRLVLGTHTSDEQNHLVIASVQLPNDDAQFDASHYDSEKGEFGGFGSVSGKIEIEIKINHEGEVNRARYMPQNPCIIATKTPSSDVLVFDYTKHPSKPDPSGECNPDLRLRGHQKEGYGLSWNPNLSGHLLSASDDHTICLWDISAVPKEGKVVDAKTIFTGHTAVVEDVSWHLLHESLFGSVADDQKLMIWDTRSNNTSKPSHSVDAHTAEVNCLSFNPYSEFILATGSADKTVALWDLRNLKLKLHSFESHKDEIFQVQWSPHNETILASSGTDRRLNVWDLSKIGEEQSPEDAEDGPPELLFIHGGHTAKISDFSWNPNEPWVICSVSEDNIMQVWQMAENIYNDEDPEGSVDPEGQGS
Chain of wild type PRC2 (wtPRC2) complex (Q6ZN18 whole entry partner): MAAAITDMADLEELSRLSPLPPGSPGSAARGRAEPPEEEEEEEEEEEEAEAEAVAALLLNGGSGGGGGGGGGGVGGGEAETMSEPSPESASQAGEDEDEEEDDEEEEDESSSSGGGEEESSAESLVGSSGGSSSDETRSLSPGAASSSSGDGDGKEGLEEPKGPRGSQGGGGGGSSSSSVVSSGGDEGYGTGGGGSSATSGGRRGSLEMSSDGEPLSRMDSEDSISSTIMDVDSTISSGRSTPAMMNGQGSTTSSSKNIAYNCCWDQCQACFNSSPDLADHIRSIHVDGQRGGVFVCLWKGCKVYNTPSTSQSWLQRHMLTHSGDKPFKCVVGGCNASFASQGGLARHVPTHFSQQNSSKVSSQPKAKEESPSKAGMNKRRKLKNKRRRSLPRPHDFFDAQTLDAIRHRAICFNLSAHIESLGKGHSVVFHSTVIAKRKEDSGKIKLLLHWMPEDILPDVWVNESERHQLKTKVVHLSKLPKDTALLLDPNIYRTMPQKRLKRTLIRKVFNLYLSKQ
T1 sequence (O75530 whole entry): as the sequence (O75530 whole entry) above

| Structure (SMILES) | IC50 [1, 4] | IC50 [2, 5] | IC50 [3, 6] | IC50 [1, 7] | IC50 [2, 8] | IC50 [3, 9] |
| --- | --- | --- | --- | --- | --- | --- |
| CCc1cc(S(C)(=O)=O)ccc1-c1ccc(NCc2c(F)cccc2OC)n2cnnc12 [Example 271, 8-(2-ethyl-4-(methylsulfonyl)phenyl)-N-(2-fluoro-6-methoxybenzyl)-[1,2,4]triazolo[4,3-a]pyridin-5-amine] | 33.2 nM | 80.3 nM | 30 nM | – | – | – |
| COc1ncc(-c2ccc(NCc3c(F)cc(F)cc3OC)n3cnnc23)c(C)n1 [Example 323, N-(2,4-difluoro-6-methoxybenzyl)-8-(2-methoxy-4-methylpyrimidin-5-yl)-[1,2,4]triazolo[4,3-a]pyridin-5-amine] | 24.6 nM | 31.2 nM | 14.3 nM | – | – | – |
| COc1cccc(F)c1CNc1ccc(-c2ccc(S(=O)(=O)C3CCNCC3)cc2)c2nncn12 [Example 132, N-(2-fluoro-6-methoxybenzyl)-8-(4-(piperidin-4-ylsulfonyl)phenyl)-[1,2,4] triazolo[4,3-a]pyridin-5-amine] | – | – | – | 69.1 nM | 64.9 nM | 21.8 nM |
| COc1ccccc1CNc1ccc(-c2ccc(C(C)=O)cc2)c2nncn12 [Example 63, 1-(4-(5-((2-methoxybenzyl)amino)-[1,2,4]triazolo[4,3-a]pyridin-8-yl)phenyl) ethanone] | – | – | – | 76.8 nM | 1700 nM | 275 nM |
| CCN1CCN(c2ccc(-c3ccc(NCc4ccccc4OC)n4cnnc34)cc2)CC1 [Example 152, 8-(4-(4-ethylpiperazin-1-yl)phenyl)-N-(2-methoxybenzyl)-[1,2,4]triazolo[4,3-a] pyridin-5-amine] | – | – | – | 65.9 nM | 207 nM | 101 nM |
| COC(=O)N1CCC(n2cc(-c3ccc(NCc4c(F)cccc4OC)n4cnnc34)cn2)CC1 [Example 246, methyl 4-(4-(5-((2-fluoro-6-methoxybenzyl)amino)-[1,2,4]triazolo[4,3-a]pyridin-8-yl)-1H-pyrazol-1-yl) piperidine-1-carboxylate] | 68.9 nM | 106 nM | 242 nM | – | – | – |
| COc1cccc(F)c1CNc1ccc(-c2cncnc2)c2nncn12 [Example 147, N-(2-fluoro-6-methoxybenzyl)-8-(pyrimidin-5-yl)-[1,2,4]triazolo[4,3-a]pyridin-5-amine] | – | – | – | 77.4 nM | 60.8 nM | 42.5 nM |
| COc1cccc(F)c1CNc1ccc(-c2ccc(C(=O)N(C)C)nc2C)c2nncn12 [Example 269, 5-(5-((2-fluoro-6-methoxybenzyl)amino)-[1,2,4]triazolo[4,3-a]pyridin-8-yl)-N,N,6-trimethylpicolinamide] | 8.9 nM | 60.1 nM | 4.8 nM | – | – | – |
| COc1cccc(F)c1CNc1ccc(-c2cnc(C#N)cc2C)c2nncn12 [Example 251, 5-(5-((2-fluoro-6-methoxybenzyl)amino)-[1,2,4]triazolo[4,3-a]pyridin-8-yl)-4-methylpicolinonitrile] | 15.7 nM | 41.8 nM | 8.6 nM | – | – | – |
| COc1ccccc1CNc1ccc(-c2ccnc(N3CCN(C)CC3)c2)c2nncn12 [Example 67, N-(2-methoxybenzyl)-8-(2-(4-methylpiperazin-1-yl)pyridin-4-yl)-[1,2,4] triazolo[4,3-a]pyridin-5-amine] | – | – | – | 54.6 nM | 197 nM | 45 nM |

More lines, now with the values ahead:

| IC50 [1, 4] | IC50 [2, 5] | IC50 [3, 6] | IC50 [1, 7] | IC50 [2, 8] | IC50 [3, 9] | Structure (SMILES) |
| --- | --- | --- | --- | --- | --- | --- |
| 32.9 nM | 176 nM | 58.6 nM | – | – | – | COc1cccc(F)c1CNc1ccc(-c2cccnc2OC)c2nncn12 [Example 176, N-(2-fluoro-6-methoxybenzyl)-8-(2-methoxypyridin-3-yl)-[1,2,4]triazolo [4,3-a]pyridin-5-amine] |
| – | – | – | 56.2 nM | 377 nM | 158 nM | COc1ccc(-c2ccc(NCc3ccccc3OC)n3cnnc23)cn1 [Example 16, N-(2-methoxybenzyl)-8-(6-methoxypyridin-3-yl)-[1,2,4] triazolo[4,3-a]pyridin-5-amine] |
| – | – | – | 55.7 nM | 491 nM | 815 nM | COc1cc(F)ccc1CNc1ccc(-c2ccc(S(C)(=O)=O)cc2)c2nncn12 [Example 83, N-(4-fluoro-2-methoxybenzyl)-8-(4-(methylsulfonyl)phenyl)-[1,2,4]triazolo[4,3-a]pyridin-5-amine] |
| 26.6 nM | 48.3 nM | 18 nM | – | – | – | COc1cccc(F)c1CNc1ccc(-c2cnc(OC(F)F)cc2C)c2nncn12 [Example 304, 8-(6-(difluoromethoxy)-4-methylpyridin-3-yl)-N-(2-fluoro-6-methoxybenzyl)-[1,2,4]triazolo[4,3-a]pyridin-5-amine] |
| – | – | – | 33.9 nM | 62.4 nM | 2.4 nM | COc1cccc(F)c1CNc1ccc(-c2nnc(C)o2)c2nncn12 [Example 9, N-(2-Fluoro-6-methoxybenzyl)-8-(5-methyl-1,3,4-oxadiazol-2-yl)-[1,2,4]triazolo[4,3-a]pyridin-5-amine] |
| – | – | – | 16 nM | 90.6 nM | 9.5 nM | COc1cccc(F)c1CNc1ccc(-c2cccnc2)c2nncn12 [Example 114, N-(2-fluoro-6-methoxybenzyl)-8-(pyridin-3-yl)-[1,2,4]triazolo[4,3-a]pyridin-5-amine] |
| – | – | – | 15.7 nM | 351 nM | 14.8 nM | COc1cccc(F)c1CNc1ccc(-c2cnc(S(C)(=O)=O)c(C)c2)c2nncn12 [Example 160, N-(2-fluoro-6-methoxybenzyl)-8-(5-methyl-6-(methylsulfonyl)pyridin-3-yl)-[1,2,4]triazolo[4,3-a] pyridin-5-amine] |
| – | – | – | 16.5 nM | 206 nM | 27.9 nM | COc1ccccc1CNc1ccc(-c2ccc(C(=O)N3CCCC3)cc2)c2nncn12 [Example 42, (4-(5-((2-methoxybenzyl)amino)-[1,2,4]triazolo[4,3-a]pyridin-8-yl)phenyl) (pyrrolidin-1-yl)methanone] |
| – | – | – | 13.4 nM | 679 nM | 10.3 nM | COc1cccc(F)c1CNc1ccc(-c2cncc(N3CCCC3=O)c2)c2nncn12 [Example 167, 1-(5-(5-((2-fluoro-6-methoxybenzyl)amino)-[1,2,4]triazolo[4,3-a]pyridin-8-yl)pyridin-3-yl)pyrrolidin-2-one] |
| – | – | – | 12.9 nM | 1010 nM | 43.3 nM | COc1ccccc1CNc1ccc(-c2ccc(C(N)=O)cc2)c2nncn12 [Example 72, 4-(5-((2-methoxybenzyl)amino)-[1,2,4]triazolo[4,3-a]pyridin-8-yl)benzamide] |
| – | – | – | 70.8 nM | 350 nM | 191 nM | COc1cccc(F)c1CNc1ccc(-c2cnc(N3CCN(C(C)C)CC3)c(C(F)(F)F)c2)c2nncn12 [Example 108, N-(2-fluoro-6-methoxybenzyl)-8-(6-(4-isopropylpiperazin-1-yl)-5-(trifluoromethyl)pyridin-3-yl)-[1,2,4]triazolo[4,3-a] pyridin-5-amine] |
| – | – | – | 31.7 nM | 914 nM | 126 nM | COc1ccccc1CNc1ccc(-c2ccc(C(N)=O)c(Cl)c2)c2nncn12 [Example 64, 2-chloro-4-(5-((2-methoxybenzyl)amino)-[1,2,4]triazolo[4,3-a]pyridin-8-yl) benzamide] |
| – | – | – | 11.8 nM | 252 nM | 29.9 nM | COc1ccccc1CNc1ccc(-c2ccc(CN3CC(F)C3)cc2)c2nncn12 [Example 66, 8-(4-((3-fluoroazetidin-1-yl)methyl)phenyl)-N-(2-methoxybenzyl)-[1,2,4] triazolo[4,3-a]pyridin-5-amine] |

From patent US10689378B2, “Triazolopyridine compounds and uses thereof” (Novartis AG, priority 2016, dated 2020)
